Measured values from patent US5672715A, “Herbicidal substituted 3-aryl-pyrazoles” (Monsanto Company, priority 1995, dated 1997).
Read-outs that look alike come from different tables or passages of the source.

Legend:
Assay type in all cases: in vivo
Barnyardgrass [1] = assay: pre-emergence herbicide test; conditions: Echinochloa crus-galli, pre-emergence, read-out: % plant inhibition
Summary of the method: (§1)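 Herbicidal effect was assessed as percent inhibition about 14 days after sowing. A known amount of compound was added to the covering topsoil, and the pans were subirrigated in a greenhouse.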

Rice = assay: pre-emergence herbicide test; conditions: Oryza sativa, read-out: % plant inhibition
Summary of the method: as §1

Morning Glory [2] = assay: pre-emergence herbicide test; conditions: Ipomoea, pre-emergence, read-out: % plant inhibition
Summary of the method: as §1

Barnyardgrass [3] = assay: post-emergence herbicide test; conditions: Echinochloa crus-galli, post-emergence, read-out: % plant inhibition
Summary of the method: (§2)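 Sown pans kept on a greenhouse bench with irrigation or subirrigation until plants reached two to three weeks, then sprayed at 170.3 kPa (10 psig). Spray mix held about 0.4% by volume emulsifier; total volume 1870 L/Ha. Result expressed as percent inhibition.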

Yellow Foxtail = assay: post-emergence herbicide test; conditions: Setaria, read-out: % plant inhibition
Summary of the method: as §2

Velvetleaf = assay: post-emergence herbicide test; conditions: Abutilon theophrasti, post-emergence, read-out: % plant inhibition
Summary of the method: as §2

Yellow Nutsedge = assay: post-emergence herbicide test; conditions: Cyperus, read-out: % plant inhibition
Summary of the method: as §2

Wheat = assay: post-emergence herbicide test; conditions: Triticum aestivum, post-emergence, read-out: % plant inhibition
Summary of the method: as §2

Soybean = assay: post-emergence herbicide test; conditions: Glycine max, post-emergence, read-out: % plant inhibition
Summary of the method: as §2

Morning Glory [4] = assay: post-emergence herbicide test; conditions: Ipomoea, post-emergence, read-out: % plant inhibition
Summary of the method: as §2

Blackgrass = assay: post-emergence herbicide test; conditions: Alopecurus myosuroides, post-emergence, read-out: % plant inhibition; for inhibition at 7.95803 g/ha: 0.0071 lb/A; for inhibition at 40.0143 g/ha: 0.0357 lb/A; for inhibition at 200.072 g/ha: 0.1785 lb/A; for inhibition at 1000.92 g/ha: 0.893 lb/A
Summary of the method: as §2

Corn = assay: post-emergence herbicide test; conditions: Zea mays, post-emergence, read-out: % plant inhibition
Summary of the method: as §2

Cocklebur = assay: post-emergence herbicide test; conditions: Xanthium strumarium, post-emergence, read-out: % plant inhibition
Summary of the method: as §2

Bedstraw Catchweed = assay: post-emergence herbicide test; conditions: Galium aparine, post-emergence, read-out: % plant inhibition
Summary of the method: as §2

Common Chickweed = assay: post-emergence herbicide test; conditions: post-emergence, read-out: % plant inhibition
Summary of the method: as §2

With `C#CCOc1cc(-c2nn(C)c(C(F)(F)F)c2C)c(F)cc1Cl` [Compound 39] the inhibition at 7.95803 g/ha (Barnyardgrass [1]; 0.0071 lb/A) was 80%, the inhibition at 40.0143 g/ha (Barnyardgrass [1]; 0.0357 lb/A) was 100% and the inhibition at 200.072 g/ha (Barnyardgrass [1]; 0.1785 lb/A) was 100%. It also gave an inhibition at 280.212 g/ha (Barnyardgrass [1]; 0.25 lb/A) of 100%, an inhibition at 1000.92 g/ha (Barnyardgrass [1]; 0.893 lb/A) of 100% and an inhibition at 7.95803 g/ha (Rice; 0.0071 lb/A) of 65%. The inhibition at 40.0143 g/ha (Rice; 0.0357 lb/A) was 70%, the inhibition at 200.072 g/ha (Rice; 0.1785 lb/A) was 85% and the inhibition at 1000.92 g/ha (Rice; 0.893 lb/A) was 100%. For the same compound, the inhibition at 7.95803 g/ha (Morning Glory [2]; 0.0071 lb/A) was 70%, the inhibition at 40.0143 g/ha (Morning Glory [2]; 0.0357 lb/A) was 85% and the inhibition at 200.072 g/ha (Morning Glory [2]; 0.1785 lb/A) was 100%. For the same compound, the inhibition at 1000.92 g/ha (Morning Glory [2]; 0.893 lb/A) was 100%, the inhibition at 7.95803 g/ha (Barnyardgrass [3]; 0.0071 lb/A) was 30% and the inhibition at 40.0143 g/ha (Barnyardgrass [3]; 0.0357 lb/A) was 70%. It also gave an inhibition at 200.072 g/ha (Barnyardgrass [3]; 0.1785 lb/A) of 98%, an inhibition at 1000.92 g/ha (Barnyardgrass [3]; 0.893 lb/A) of 98% and an inhibition at 7.95803 g/ha (Yellow Foxtail; 0.0071 lb/A) of 65%. The inhibition at 40.0143 g/ha (Yellow Foxtail; 0.0357 lb/A) was 100%, the inhibition at 200.072 g/ha (Yellow Foxtail; 0.1785 lb/A) was 100% and the inhibition at 1000.92 g/ha (Yellow Foxtail; 0.893 lb/A) was 100%. It also gave an inhibition at 7.95803 g/ha (Velvetleaf; 0.0071 lb/A) of 75%, an inhibition at 40.0143 g/ha (Velvetleaf; 0.0357 lb/A) of 100% and an inhibition at 200.072 g/ha (Velvetleaf; 0.1785 lb/A) of 100%. The inhibition at 1000.92 g/ha (Velvetleaf; 0.893 lb/A) was 100%, the inhibition at 7.95803 g/ha (Yellow Nutsedge; 0.0071 lb/A) was 0% and the inhibition at 40.0143 g/ha (Yellow Nutsedge; 0.0357 lb/A) was 40%. It also gave an inhibition at 200.072 g/ha (Yellow Nutsedge; 0.1785 lb/A) of 10%, an inhibition at 1000.92 g/ha (Yellow Nutsedge; 0.893 lb/A) of 30% and an inhibition at 7.95803 g/ha (Wheat; 0.0071 lb/A) of 0%. For the same compound, the inhibition at 40.0143 g/ha (Wheat; 0.0357 lb/A) was 0%, the inhibition at 200.072 g/ha (Wheat; 0.1785 lb/A) was 15% and the inhibition at 1000.92 g/ha (Wheat; 0.893 lb/A) was 75%. The inhibition at 7.95803 g/ha (Soybean; 0.0071 lb/A) was 25%, the inhibition at 40.0143 g/ha (Soybean; 0.0357 lb/A) was 70% and the inhibition at 200.072 g/ha (Soybean; 0.1785 lb/A) was 70%. The inhibition at 1000.92 g/ha (Soybean; 0.893 lb/A) was 100%, the inhibition at 7.95803 g/ha (Morning Glory [4]; 0.0071 lb/A) was 95% and the inhibition at 40.0143 g/ha (Morning Glory [4]; 0.0357 lb/A) was 80%. For the same compound, the inhibition at 200.072 g/ha (Morning Glory [4]; 0.1785 lb/A) was 100%, the inhibition at 1000.92 g/ha (Morning Glory [4]; 0.893 lb/A) was 95% and the inhibition at 7.95803 g/ha (Blackgrass; Table 4a) was 10%. It also gave an inhibition at 7.95803 g/ha (Blackgrass; Table 5a) of 0%, an inhibition at 40.0143 g/ha (Blackgrass; Table 4a) of 35% and an inhibition at 40.0143 g/ha (Blackgrass; Table 5a) of 80%. It also gave an inhibition at 200.072 g/ha (Blackgrass; Table 4a) of 25%, an inhibition at 200.072 g/ha (Blackgrass; Table 5a) of 95% and an inhibition at 1000.92 g/ha (Blackgrass; Table 4a) of 70%. The inhibition at 1000.92 g/ha (Blackgrass; Table 5a) was 100%, the inhibition at 7.95803 g/ha (Corn; 0.0071 lb/A) was 50% and the inhibition at 40.0143 g/ha (Corn; 0.0357 lb/A) was 30%. It also gave an inhibition at 200.072 g/ha (Corn; 0.1785 lb/A) of 100%, an inhibition at 1000.92 g/ha (Corn; 0.893 lb/A) of 95% and an inhibition at 7.95803 g/ha (Cocklebur; 0.0071 lb/A) of 80%. The inhibition at 40.0143 g/ha (Cocklebur; 0.0357 lb/A) was 98%, the inhibition at 200.072 g/ha (Cocklebur; 0.1785 lb/A) was 80% and the inhibition at 1000.92 g/ha (Cocklebur; 0.893 lb/A) was 100%. The inhibition at 7.95803 g/ha (Bedstraw Catchweed; 0.0071 lb/A) was 0%, the inhibition at 40.0143 g/ha (Bedstraw Catchweed; 0.0357 lb/A) was 100% and the inhibition at 200.072 g/ha (Bedstraw Catchweed; 0.1785 lb/A) was 100%. For the same compound, the inhibition at 1000.92 g/ha (Bedstraw Catchweed; 0.893 lb/A) was 100%, the inhibition at 7.95803 g/ha (Common Chickweed; 0.0071 lb/A) was 0% and the inhibition at 40.0143 g/ha (Common Chickweed; 0.0357 lb/A) was 100%. The inhibition at 200.072 g/ha (Common Chickweed; 0.1785 lb/A) was 100% and the inhibition at 1000.92 g/ha (Common Chickweed; 0.893 lb/A) was 100%.
